Measurements reported in US10316061B2, “Synthesis of cell penetrating peptides for drug delivery and stem cell applications” (Temple University-Of The Commonwealth System of Higher …, priority 2014, dated 2019).

Key:
[1] = test system: ReNcell VM cells; experiment: Immunocytochemistry of Tubb3 / MAP2 protein expression in 4-week differentiated ReNcell VM; format: cell-based, human
Description: FIG. 15. Tubb3 Expression Analysis for 4-Week Differentiated ReNcell VM Cells. ReNcell VM cells were treated with neural stem cell culture medium (control), RA (retinoic acid), RA-PepB, C16-PepB, LiCl, and IFNγ (interferon gamma). Tubb3 proteins expressed in the cells were stained as green and cell nuclei were stained with blue (DAPI).
FIG. 16. MAP2 Expression Analysis for 4-Week Differentiated ReNcell VM Cells. ReNcell VM treated with cell culture media (control), RA, RA-PepB, C16-PepB, LiCl, and IFNγ (interferon gamma). MAP2 proteins expressed in the cells were stained as green and cell nuclei were stained with blue (DAPI) FIG. 17. Quantitation of Immunocytochemistry Results for Tubb3/MAP2 Proteins. Relative numbers of the cells expressing Tubb3 and MAP2 proteins were counted and normalized to the control group (*P<0.05, **P<0.01).
The proteins expressed in ReNcell VM cells were visualized with antibodies to study the protein expression by the differentiation of the stem cells in the presence of various soluble factors including RA-PepB and C16-PepB. […] As is shown in FIGS. 15 and 16, Tubb3 or MAP2 expression levels in 4-week differentiated ReNcell VM cells were evaluated via immunocytochemistry (ICC). Protein expression, after antibody staining, was visualized and quantitatively compared by counting Tubb3 or MAP2-positive cells. […]

[2] = test system: ReNcell VM; experiment: RT-qPCR analysis of neural marker gene expression in differentiated ReNcell VM; format: cell-based, human
Description: Differentiated stem cells were cultured for 10 weeks.
The statistical significance was evaluated compared to the control (differentiated ReNcell VM without chemicals) *P<0.05, **P<0.01. GAPDH served as control.
Total mRNA was extracted using mRNA isolation kit (Ambion, Life Technologies) according to the manufacturer's protocol. For higher yield, neural stem cells from eight wells in the same culture plate were homogenized in cell lysis buffer.
Concentrations of mRNA samples were evaluated based on OD260/OD280. mRNA samples were reverse transcribed using reverse transcription kit (Applied Biosystems). PCR amplification of cDNA was carried out using universal PCR master mix (Applied Biosystems) and gene-specific primer sets (Applied Biosystems). These primers included neural stem cell (Nestin, SOX2), immature neuron (Tubb3), mature neuron (MAP2), and astrocyte (GFAP) specific genes. GAPDH was used as a control (house keeping gene). The cycles for RT-PCR consisted of 1 second denaturation at 95° C., 20 second annealing at 60° C. RT-PCR products were analyzed using Mastercycler ep realplex 4 (Eppendorf).

[3] = test system: HEK293 cells; experiment: Live-cell / confocal uptake of ROX-labeled PepA derivatives in HEK293; format: cell-based; conditions: HEK293 cultures; ROX dye label
Text: FIG. 9 is a series of images depicting live-cell uptake of bioactive peptide A (PepA) labeled with the ROX Dye. Bioconjugation with palmitic acid (C16 tail) and/or CPP AAAAEK (PepX) attachments increased cellular uptake in HEK293 cultures.
FIG. 11 is a series of images depicting laser-scanning confocal microscope imaging of bioactive peptide A (PepA) labeled with the ROX dye. Bioconjugation with palmitic acid (C16 tail) and/or CPP AAAAEK (PepX) attachments increased cellular uptake in HEK293 cultures.
Bioactive (model) peptide A (PepA) and CPP X (PepX) were synthesized via solid phase peptide synthesis (SPPS) methods (Suh et al., 2001 Comprehen. Biomat 4: 219-245; Suh et al., 2013 Polymer Adhesion, Friction and Lubrication 283-317 (Wiley)). Fmoc-deprotection was performed with organic bases such as 4-methyl piperidine and DBU in DMF at room temperature. Coupling reaction was performed in the presence of Fmoc-protected amino acids with the mixture of coupling reagents and organic bases (e.g., HBTU, HOBt and DIEA). The cleaved peptide from the resin was purified by HPLC, collected, and stored for future uses. HEK293 and ReNcell VM cell lines were maintained and utilized for cellular experiments. Live-Cell imaging analysis was performed on an Olympus IX81 and IX83-DSU wide-field spinning disc confocal microscope equipped with an LCI Chamlide stage-top incubator unit. […]

In the case of `[Cl-].[Li+]` [LiCl, lithium chloride], the “Tubb3 expression compared to the control (ICC, positive cell count)” value [1] was “statistically significant increases”.

For `CC1=C(/C=C/C(C)=C/C=C/C(C)=C/C(=O)O)C(C)(C)CCC1` [RA, Retinoic acid], the “cytotoxicity in differentiation culture (FIG. 6)” value ([2]; differentiated stem cells cultured for 10 weeks) was “Highly cytotoxic; low cell count among results”.

AAAAEK(A) [PepB] was tested, and the “neuronal differentiation by qRT-PCR (FIGS. 12 and 13)” value ([2]; 1 to 4 weeks of differentiation, GAPDH control) was “increased neuronal differentiations” and the “live-cell uptake (FIG. 9)” value [3] was “increased cellular uptake of multiple peptides in a synergistic manner”.
